“And” between values parts separate entries of the source, which are not always exact repeats. Equal entries are not always repeated.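 Following 48 hours of exposure in 96-well plates, responses at five concentrations were used to interpolate endpoints linearly. GI50 = concentration required for 50% inhibition of growth. TGI is the concentration that stops growth completely.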
How the values were obtained:
Experiment in all cases: DTP human tumour cell line panel, 48 h
A498 renal = tested on: A498 renal
DLD-1 colon = tested on: DLD-1 colon
DMS 114 small cell lung = tested on: DMS 114 small cell lung
DMS 273 small cell lung = tested on: DMS 273 small cell lung
HOP-18 NSCLC = tested on: HOP-18 NSCLC
LXFL 529 NSCLC = tested on: LXFL 529 NSCLC
M19-MEL melanoma = tested on: M19-MEL melanoma
MDA-N = tested on: MDA-N
NCI-H460 lung = tested on: NCI-H460 lung
SNB-75 CNS = tested on: SNB-75 CNS
SNB-78 CNS = tested on: SNB-78 CNS

Row | SMILES | TGI (A498 renal) | TGI (DLD-1 colon) | TGI (DMS 114 small cell lung) | TGI (DMS 273 small cell lung) | TGI (HOP-18 NSCLC) | TGI (LXFL 529 NSCLC) | TGI (M19-MEL melanoma) | TGI (MDA-N) | TGI (NCI-H460 lung) | TGI (SNB-75 CNS) | TGI (SNB-78 CNS) | GI50 (MDA-N) | GI50 (NCI-H460 lung) | GI50 (SNB-75 CNS) | GI50 (DLD-1 colon) | GI50 (DMS 114 small cell lung) | GI50 (DMS 273 small cell lung) | GI50 (HOP-18 NSCLC) | GI50 (M19-MEL melanoma) | GI50 (SNB-78 CNS)
1 | CCCc1cc(-c2ccc(-c3cc(CCC)c(C=O)[nH]3)s2)[nH]c1C=O | > 100 µM | > 100 µM | 65 µM | > 100 µM | > 100 µM | > 100 µM | > 100 µM | > 100 µM | > 100 µM | > 100 µM | > 100 µM |  |  |  |  |  |  |  |  | 
2 | Cc1ccc(F)c2c(=O)cc(-c3ccccc3)[nH]c12 |  | > 100 µM | > 100 µM | > 100 µM | > 100 µM | > 100 µM | > 100 µM |  | > 100 µM | > 100 µM |  |  |  |  |  |  |  |  |  | 
3 | Oc1ccc(Cn2c(-c3ccc(O)cc3)nc3ccccc32)cc1 | > 100 µM | > 100 µM | > 100 µM | > 100 µM |  | > 100 µM | > 100 µM | > 100 µM | > 100 µM | > 100 µM |  |  |  |  |  |  |  |  |  | 
4 | CC(C)c1cccc(C(C)C)c1NC(=O)C(=O)C1SC(=S)NC1=O (stereo not given) | > 100 µM | > 100 µM |  | > 100 µM | > 100 µM | > 100 µM | > 100 µM |  | > 100 µM | > 100 µM | > 100 µM |  |  |  |  |  |  |  |  | 
5 | Cc1ccccc1NC(=O)CSc1nnc(Cc2ccccc2)o1 |  | > 100 µM | > 100 µM | > 100 µM | > 100 µM | > 100 µM | > 100 µM |  | > 100 µM | > 100 µM | > 100 µM |  |  |  |  |  |  |  |  | 
6 | CCN(CC)CCC(=O)O[C@H]1CC[C@H](CC(C)[C@H]2CC(=O)C(C)C=C(C)[C@H](OC(=O)CCN(CC)CC)C(OC)C(=O)[C@@H](C)CC(C)/C=C/C=C/C=C(C)C(OC)CC3CC[C@H](C)[C@](O)(O3)C(=O)C(=O)N3CCCCC3C(=O)O2)CC1OC (stereo not given in full) | 1.11 µM | 2.62 µM | 1.54 µM | 2.32 µM | 3.35 µM | 1.74 µM |  | 4.38 µM and 2.12 µM | 3.48 µM and 2.69 µM | 1.77 µM and 0.55 µM | 1.7 µM | 1.96 µM | 0.292 µM and 1.34 µM | 0.1 µM |  |  |  |  |  | 
7 | CC(=O)C1=NN(c2ccccc2)C2(S1)SC(c1ccccc1)(c1ccccc1)c1ccccc12 (stereo not given) | > 100 µM | > 100 µM | > 100 µM | 73.6 µM | > 100 µM | > 100 µM | > 100 µM |  | > 100 µM | 71.1 µM | > 100 µM |  |  |  |  |  |  |  |  | 
8 | COc1nc(OC)nc(Sc2ccc(Sc3ccc(Sc4nc(OC)nc(OC)n4)cc3)cc2)n1 | > 100 µM | > 100 µM | > 100 µM | > 100 µM | > 100 µM | > 100 µM | > 100 µM |  | > 100 µM | > 100 µM | > 100 µM |  |  |  |  |  |  |  |  | 
9 | COC(=O)CCC1(O)C=CC(=O)C=C1 | > 100 µM |  |  |  |  |  |  | > 100 µM | > 100 µM | > 100 µM |  |  |  |  |  |  |  |  |  | 
10 | O=C1c2ccccc2C(=O)c2c(O)c(NCCNCCO)cc(O)c21 | 21 µM | 11.1 µM | 16.1 µM | 12 µM | 18.8 µM | 18.1 µM | 15.2 µM |  | 12.3 µM | 17.9 µM | 18.7 µM |  |  |  |  |  |  |  |  | 
11 | Cc1cc(Cl)ccc1NC(=O)C(=O)Cc1occc(=O)c1O | > 100 µM | > 100 µM | > 100 µM | > 100 µM | > 100 µM | > 100 µM | > 100 µM |  | > 100 µM | > 100 µM | > 100 µM |  |  |  |  |  |  |  |  | 
12 | COC(=O)CNCC1OC2OC(C)(C)OC2C1N=[N+]=[N-] (stereo not given) | > 100 µM |  |  |  |  |  |  | > 100 µM | > 100 µM | > 100 µM |  |  |  |  |  |  |  |  |  | 
13 | CC/C=C/C(/C=C/C[C@]1(CC)C[C@H](CC)[C@H](CC(=O)O)OO1)CC (stereo not given in full) | 28.9 µM |  |  |  |  |  |  | 3.71 µM | 4.25 µM | 15.4 µM |  |  |  |  |  |  |  |  |  | 
14 | COc1nc(C)nc2c1ncn2Cc1ccccc1 | > 100 µM |  |  |  |  |  |  | > 100 µM | > 100 µM | > 100 µM |  |  |  |  |  |  |  |  |  | 
15 | CC1(C)N=C(Oc2ccccc2)n2nccc2N1 | > 100 µM | > 100 µM | > 100 µM | > 100 µM | > 100 µM | > 100 µM | > 100 µM |  | > 100 µM | > 100 µM |  |  |  |  |  |  |  |  |  | 
16 | C=CCC1C2CCC(O[Si](C(C)C)(C(C)C)C(C)C)(C(C(=O)OC)C2)C1O (stereo not given) | > 100 µM |  |  |  |  |  |  | > 100 µM | > 100 µM | > 100 µM |  |  |  |  |  |  |  |  |  | 
17 | Cc1ccc(N2C(=O)C(=O)N(/N=C3\C(=O)Nc4ccccc43)C2=S)cc1 | > 100 µM |  |  |  |  |  |  | > 100 µM | > 100 µM | > 100 µM |  |  |  |  |  |  |  |  |  | 
18 | CC(C)(CN)SCc1ccccc1 | > 100 µM |  |  |  |  |  |  | > 100 µM | > 100 µM | > 100 µM |  |  |  |  |  |  |  |  |  | 
19 | COC(=O)CCC(C)[C@H]1CCC2C3C(C[C@H](OC(C)=O)[C@@]21C)[C@@]1(C)CCC2(C[C@H]1C[C@H]3OC(C)=O)OOC1(CCCCC1)OO2 (stereo not given in full) | > 100 µM |  |  |  |  |  |  | > 100 µM | > 100 µM | 79.3 µM |  |  |  |  |  |  |  |  |  | 
20 | Cc1cn2c(/C=C3/C(=O)Nc4ccccc43)c(C)nc2s1 | > 100 µM |  |  |  |  |  |  | 0.492 µM | 16.1 µM | > 100 µM |  |  |  |  |  |  |  |  |  | 
21 | COC1C(OC(N)=O)C(O)C(Oc2ccc3c(O)c(NC(=O)c4ccc(O)c(CC=C(C)C)c4)c(=O)oc3c2C)OC1(C)C (stereo not given) | > 100 µM |  |  |  |  |  |  | > 100 µM | > 100 µM | > 100 µM |  |  |  |  |  |  |  |  |  | 
22 | Nc1nc(NCCOCP(=O)(O)O)c(N)c(=O)[nH]1 | > 100 µM |  |  |  |  |  |  | > 100 µM | > 100 µM | > 100 µM |  |  |  |  |  |  |  |  |  | 
23 | C(=N/NC1=NCCN1)/c1c2ccccc2c(/C=N\NC2=NCCN2)c2ccccc12 | 0.273 µM and 1.8 µM and 2.3 µM | 27.9 µM and 250 µM | 0.603 µM and 0.421 µM |  | 0.888 µM and 1.5 µM |  | 0.355 µM and 0.258 µM | 0.69 µM and 1.18 µM | 0.335 µM and 0.33 µM and 0.159 µM | 0.054 µM and 0.426 µM and 0.44 µM | 3.83 µM and 9.8 µM |  |  |  | 1.32 µM | 0.0491 µM and 0.0606 µM | 0.0504 µM | 0.282 µM | 0.0605 µM | 0.368 µM
24 | Cc1nc2nn(C)cc2c(=O)n1/N=C/c1ccccc1 | > 100 µM | > 100 µM | > 100 µM | > 100 µM | > 100 µM |  | > 100 µM |  | > 100 µM | > 100 µM | > 100 µM |  |  |  |  |  |  |  |  | 
25 | CC(=O)/C(=C(/Br)I)c1ccccc1 | 28.5 µM |  |  |  |  |  |  | 14.8 µM | 48.3 µM | 39.6 µM |  |  |  |  |  |  |  |  |  | 
26 | CCCOP(=S)(N1CC1)N1CC1 | > 100 µM | > 100 µM | > 100 µM | > 100 µM | > 100 µM |  | > 100 µM |  | > 100 µM | > 100 µM | > 100 µM |  |  |  |  |  |  |  |  | 
27 | CCOC(=O)c1ccc(Nc2cnc3ccc(C(F)(F)F)cc3n2)cc1 | 33.9 µM |  |  |  |  |  |  | 44.6 µM | 27.2 µM | 42.8 µM |  |  |  |  |  |  |  |  |  | 
28 | Cc1ccc([N+](=O)[O-])c2c(NCCC[N+](C)(C)[O-])ccnc12 | 90.5 µM |  |  |  |  |  |  | > 100 µM | 80.1 µM | > 100 µM |  |  |  |  |  |  |  |  |  | 
29 | Cn1c(=O)sc2cc(C(=S)N3CCN(c4ccccc4)CC3)ccc21 | > 100 µM |  |  |  |  |  |  | > 100 µM | > 100 µM | 80.6 µM |  |  |  |  |  |  |  |  |  | 
30 | Cc1cc(C)nc(NS(=O)(=O)c2ccc(NC(=O)c3cccc4c(N)c5ccccc5nc34)cc2)n1 | > 100 µM | > 100 µM | > 100 µM | > 100 µM |  | > 100 µM | > 100 µM |  | > 100 µM | > 100 µM | > 100 µM |  |  |  |  |  |  |  |  | 
